From patent publication US20100184770A1, “COMPOUNDS” (Glaxo Group Limited, priority 2006, published 2010)

Experiments:
Assay type in all cases: cell-based
human H1 receptor [1] = target: T1, human H1 receptor (Homo sapiens, UniProt P35367); test: Histamine H1 functional antagonist assay: determination of functional pKi values (FLIPR); conditions: CHO cells expressing human H1 receptor, histamine at EC80, FLIPR, read-out: average pKi (pKb) at H1 (converted)
T1 construct: expressed in transfected cells
Experimental: (§1) 1. Generation of Histamine H1 Cell Line The human H1 receptor is cloned using known procedures described in the literature [Biochem. Biophys. Res. Commun., 201(2):894 (1994)]. Chinese hamster ovary (CHO) cells stably expressing the human H1 receptor are generated according to known procedures described in the literature [Br. J. Pharmacol., 117(6):1071 (1996)].
The histamine H1 cell line is seeded into non-coated black-walled clear bottom 384-well tissue culture plates in alpha minimum essential medium (Gibco/Invitrogen, cat no. 22561-021), supplemented with 10% dialysed foetal calf serum (Gibco/Invitrogen cat no. 12480-021) and 2 mM L-glutamine (Gibco/Invitrogen cat no 25030-024) and is maintained overnight at 5% CO2, 37° C.
Excess medium is removed from each well to leave 10 μl. 30 μl loading dye (250 μM Brilliant Black, 2 μM Fluo-4 diluted in Tyrodes buffer+probenecid (145 mM NaCl, 2.5 mM KCl, 10 mM HEPES, 10 mM D-glucose, 1.2 mM MgCl2, 1.5 mM CaCl2, 2.5 mM probenecid, pH adjusted to 7.40 with NaOH 1.0 M)) is added to each well and the plates are incubated for 60 min at 5% CO2, 37° C.
10 μl of test compound, diluted to the required concentration in Tyrodes buffer+probenecid (or 10 μl Tyrodes buffer+probenecid as a control) is added to each well and the plate is incubated for 30 min at 37° C., 5% CO2. The plates are then placed into a FLIPR™ (Molecular. Devices, UK) to monitor cell fluorescence (λex=488 nm, λEM=540 nm) in the manner described in Sullivan et al., (In: Lambert DG (ed.), Calcium Signaling Protocols, New Jersey: Humana Press, 1999, 125-136) before and after the addition of […] at a concentration that results in the final assay concentration of histamine being EC80.
Functional antagonism is indicated by a suppression of histamine induced increase in fluorescence, as measured by the FLIPR™ system (Molecular Devices). By means of concentration effect curves, functional affinities are determined using standard pharmacological mathematical analysis.

human H1 receptor [2] = target: T1, human H1 receptor; test: Histamine H1 functional antagonist assay: determination of antagonist duration (washout, FLIPR); conditions: at one or more time points after washout
Experimental: as §1
To determine the antagonist duration, cells are cultured overnight in non-coated black-walled clear bottom 96-well tissue culture plates, are washed with PBS and are incubated with a concentration of antagonist chosen to give an approximate DR in the range 30-300. Following the 30 min antagonist incubation period, the cells are washed two or three times with 200 μl of PBS and then 100 μl Tyrodes buffer is added to each well to initiate antagonist dissociation. Following incubation for predetermined times, typically 30-270 min at 37° C., the cells are then washed again with 200 μl PBS and are incubated with 100 Tyrodes buffer containing Brilliant Black, probenecid and Fluo-4 for 45 min at 37° C., as described above. After this period, the cells are challenged with histamine in the FLIPR™ as described above. The dose ratio at each time point is used to determine the fractional H1 receptor occupancy by the following equation: fractional receptor occupancy=(DR-1)/DR. The decrease in receptor occupancy over time approximates to a straight line and is analysed by linear regression. The slope of this straight line fit is used as an index of the dissociation rate of the antagonist. The dose ratios for antagonist treated cells and for antagonist treated and washed cells at each time point are used to calculate a relative dose ratio (rel DR) which is also used as an index of antagonist duration. Antagonists with long duration of action produce rel DR values close to 1, and antagonists with short duration of action produce rel DR values that approaches the dose ratio value obtained for antagonist treatment alone.

human H1 receptor [3] = target: T1, human H1 receptor; test: Histamine H1 functional antagonist assay: determination of antagonist pA2 (FLIPR)
Experimental: as §1
The histamine H1 receptor expressing CHO cells are seeded into non-coated black-walled clear bottom 96-well tissue culture plates as described above. […]
The plates are then placed into a FLIPR™ (Molecular Devices, UK) to monitor cell fluorescence (λex=488 nm, λEM=540 nm) in the manner described in Sullivan et al., (In: Lambert D G (ed.), Calcium Signaling Protocols, New Jersey: Humana Press, 1999, 125-136) before and after the addition of 50 μl histamine over a concentration range of 1 mM 0.1 nM. […] The antagonist pA2 is calculated using the following standard equation: pA2=log(DR-1)−log [B] where DR=dose ratio, defined as EC50 antagonist-treated/EC50 control and [B]=concentration of antagonist.

T1 sequence (P35367 whole entry): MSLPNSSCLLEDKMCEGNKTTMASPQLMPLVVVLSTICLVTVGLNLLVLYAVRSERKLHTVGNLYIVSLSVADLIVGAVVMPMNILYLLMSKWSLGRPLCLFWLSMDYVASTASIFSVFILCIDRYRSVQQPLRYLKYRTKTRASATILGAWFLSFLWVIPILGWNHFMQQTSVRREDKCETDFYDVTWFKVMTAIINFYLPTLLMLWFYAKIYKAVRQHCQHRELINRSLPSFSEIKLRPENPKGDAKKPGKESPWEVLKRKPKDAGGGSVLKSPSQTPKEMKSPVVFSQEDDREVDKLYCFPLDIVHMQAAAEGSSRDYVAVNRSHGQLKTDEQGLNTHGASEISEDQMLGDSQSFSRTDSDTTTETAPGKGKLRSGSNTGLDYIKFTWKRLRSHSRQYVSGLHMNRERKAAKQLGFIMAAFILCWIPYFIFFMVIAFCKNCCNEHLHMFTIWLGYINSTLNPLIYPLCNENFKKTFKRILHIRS

Row | Structure (SMILES) | Ki (human H1 receptor [1]) [nM] | duration of action compared with azelastine in the histamine H1 functional antagonist assay (human H1 receptor [2]) | Kb (human H1 receptor [3]) [nM]
1 | COCCC(=O)NCCN1CCC[C@@H]1Cn1nc(Cc2ccc(Cl)cc2)c2ccccc2c1=O.O=CO [Example 35, N-[2-((2R)-2-{[4-[(4-Chlorophenyl)methyl]-1-oxo-2(1H)-phthalazinyl]methyl}-1-pyrrolidinyl)ethyl]-3-(methyloxy)propanamide, formate salt] | < 316 | longer duration of action than azelastine | < 10
2 | Cl.O=C(CC(F)(F)F)NCCN1CCC[C@@H]1Cn1nc(Cc2ccc(Cl)cc2)c2ccccc2c1=O [Example 36a, N-[2-((2R)-2-{[4-[(4-Chlorophenyl)methyl]-1-oxo-2(1H)-phthalazinyl]methyl}-1-pyrrolidinyl)ethyl]-3,3,3-trifluoropropanamide, hydrochloride] | < 31.6 | longer duration of action than azelastine | < 10
